CC50 and EC50 data for eight molecules are collected here from ChEMBL document CHEMBL4190244, “Perylenyltriazoles inhibit reproduction of enveloped viruses” (Eur J Med Chem, 2017).

The structures appear in SMILES notation. Bounds are passed on as bounds.

Data set [1] in a line: Cytotoxicity against PEK cells after 24 hrs. It counts as cell-based, Sus scrofa. To be noted: pig.
In data set [2] the test system is Tick-borne encephalitis virus. Description: Antiviral activity against TBEV Absettarov infected in PEK cells preincubated simultaneously with cells and virus for 1 hr with shaking every 15 to 20 mins measured after 6 days by gentian violet-staining based assay. It is filed as functional, organism-based.
A short description of data set [3]: Cytotoxicity against PEK cells after 7 days. It counts as cell-based, Sus scrofa. To be noted: pig.

By CC50 is commonly meant the concentration giving 50% cytotoxicity. Low values mean harm at low concentration, high ones better tolerance by the cells. A word on the EC50: it is the concentration at which the effect is half-maximal. A high value points to lower potency in that assay. In the case of `O=c1[nH]c(=O)n([C@@H]2O[C@H](CO)[C@@H](O)[C@H]2O)cc1-n1cc(-c2cc3cccc4c5cccc6cccc(c(c2)c34)c65)nn1`, the half-maximal cytotoxic concentration (CC50) at 24 h in data set [1] is > 50 µM. In data set [2], this molecule had an EC50 of 0.06 µM. In addition, the CC50 at 168 h in data set [3] is > 50 µM.
In the case of `O=c1[nH]c(=O)n([C@@H]2O[C@H](CO)[C@@H](O)[C@H]2O)cc1-n1cc(-c2ccccc2)nn1`, the CC50 at 24 h in data set [1] was > 50 µM. For the same molecule, in data set [2], the 50% effective concentration (EC50) was > 50 µM. Further, the CC50 at 168 h in data set [3] is > 50 µM.
On to `OCCn1cc(-c2ccc3c4cccc5cccc(c6cccc2c63)c54)nn1`, for which the half-maximal cytotoxic concentration (CC50) at 24 h in data set [1] was > 50 µM. Besides, in data set [2], the response was half-maximal at 0.1 µM (EC50). In addition, in data set [3], the CC50 at 168 h is > 50 µM.
Turning to `OCCn1cc(-c2cc3cccc4c5cccc6cccc(c(c2)c34)c65)nn1`, the CC50 at 24 h in data set [1] is > 50 µM. In addition, a half-maximal response in data set [2] (EC50) required 0.023 µM. In addition, the CC50 at 168 h in data set [3] is > 50 µM.
In the case of `O=c1[nH]c(=O)n([C@H]2C[C@H](O)[C@@H](CO)O2)cc1-n1cc(-c2ccccc2)nn1`, in data set [1], the CC50 at 24 h is > 50 µM. The 50% effective concentration (EC50) in data set [2] is > 50 µM. The half-maximal cytotoxic concentration (CC50) at 168 h in data set [3] is > 50 µM.
Consider `O=c1[nH]c(=O)n([C@H]2C[C@H](O)[C@@H](CO)O2)cc1-n1cc(-c2ccc3c4cccc5cccc(c6cccc2c63)c54)nn1`, for which, in data set [1], the CC50 at 24 h is > 50 µM. In addition, in data set [2], the concentration giving a half-maximal response (EC50) was 0.038 µM. Also, the CC50 at 168 h in data set [3] is > 50 µM.
Regarding `O=c1[nH]c(=O)n([C@H]2C[C@H](O)[C@@H](CO)O2)cc1-n1cc(-c2cc3cccc4c5cccc6cccc(c(c2)c34)c65)nn1`, in data set [1], the CC50 at 24 h was > 50 µM. For the same molecule, the 50% effective concentration (EC50) in data set [2] is 0.06 µM. Besides, the half-maximal cytotoxic concentration (CC50) at 168 h in data set [3] was > 50 µM.
Consider `O=c1[nH]c(=O)n([C@@H]2O[C@H](CO)[C@@H](O)[C@H]2O)cc1-n1cc(-c2ccc3c4cccc5cccc(c6cccc2c63)c54)nn1`, for which the cytotoxic concentration (CC50) at 24 h in data set [1] was > 50 µM. Further, in data set [2], the midpoint of the response, the EC50, lay at 0.031 µM. Besides, the CC50 at 168 h in data set [3] is > 50 µM.
